Measurements taken from patent publication US12552767B2, “3-heteroaryl pyrrolidine and piperidine orexin receptor agonists” (Merck Sharp & Dohme LLC, priority 2020, dated 2026).

Molecular target: T1, human OX2R (Homo sapiens, UniProt O43614)
T1 construct: expressed in transfected cells; host or cells: CHO (Chinese hamster ovary) cells, grown under G418 selection
T1 sequence (O43614 1-444): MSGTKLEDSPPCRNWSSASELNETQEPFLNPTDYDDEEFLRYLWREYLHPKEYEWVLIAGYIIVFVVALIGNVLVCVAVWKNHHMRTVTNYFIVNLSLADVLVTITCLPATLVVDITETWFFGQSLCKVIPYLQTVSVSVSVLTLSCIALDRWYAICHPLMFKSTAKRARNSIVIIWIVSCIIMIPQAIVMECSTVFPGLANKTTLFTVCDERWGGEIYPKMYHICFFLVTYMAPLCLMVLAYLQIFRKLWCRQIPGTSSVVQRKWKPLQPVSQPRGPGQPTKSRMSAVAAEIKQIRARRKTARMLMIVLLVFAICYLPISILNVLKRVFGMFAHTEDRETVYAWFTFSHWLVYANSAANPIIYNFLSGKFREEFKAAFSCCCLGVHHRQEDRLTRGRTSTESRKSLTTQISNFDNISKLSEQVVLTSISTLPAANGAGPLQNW
Assay: IP-One (IPOne) orexin receptor agonist assay in CHO cells expressing human OX2R
Assay type: cell-based
Settings: for EC50: CHO cells expressing human OX2R, IP-One IP-1 detection, 2 hours incubation, four parameter logistic fit, read-out: OX2R Potency, EC50; for % of reference agonist maximal effect: human OX2R, percentage of sample raw value/mean max effect (reference compound at 1 uM with 100% activity)
Method in brief: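 CHO cells stably expressing human OX2R were stimulated with compound (10-point ½-log dilutions) for 2 h at 37 °C. IP-1 accumulation was read by HTRF (IP-One, 665/620 nm). EC50 from a four-parameter fit; % effect relative to 1 μM reference agonist control.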

EC50 [µM] | % of reference agonist maximal effect [%] | SMILES
6.64 | 93.5 | CN1C[C@H](COC(=O)N2CCC[C@H](c3cc[nH]n3)[C@@H]2COC2CCC(c3ccccc3)CC2)OCC1=O (stereo partly drawn) [Example 94, ((R)-4-methyl-5-oxomorpholin-2-yl)methyl (CIS)-2-((((CIS)-4-phenylcyclohexyl)oxy)methyl)-3-(1H-pyrazol-3-yl)piperidine-1-carboxylate]
6.23 | 58.5 | CC(F)(F)COC(=O)N1CCC[C@H](c2cc[nH]n2)[C@@H]1CO[C@H]1CC[C@@H](c2ccccc2)CC1 (relative stereo) [Example 110, 2,2-difluoropropyl (CIS)-2-((((CIS)-4-phenylcyclohexyl)oxy)methyl)-3-(1H-pyrazol-3-yl)piperidine-1-carboxylate]
> 10 | 11.9 | CCNC(=O)N1CCCC(c2nc[nH]n2)C1CO[C@H]1CC[C@@H](C(C)C)CC1 (single isomer, unassigned) [Example 62, N-ethyl-2-((((CIS)-4-isopropylcyclohexyl)oxy)methyl)-3-(1H-1,2,4-triazol-3-yl)piperidine-1-carboxamide]
0.414 | 100.0 | CCNC(=O)N1CCC[C@@H](c2n[nH]cc2C)[C@H]1CO[C@H]1CC[C@@H](c2cccc(F)c2)CC1 (single isomer, unassigned) [Example 12]
0.457 | 82.9 | O=C(C1CC1)N1CCC[C@H](c2cc[nH]n2)[C@@H]1CO[C@H]1CC[C@@H](c2ccccc2)CC1 (single isomer, unassigned) [Example 71, cyclopropyl((CIS)-2-((((CIS)-4-phenylcyclohexyl)oxy)methyl)-3-(1H-pyrazol-3-yl)piperidin-1-yl)methanone]
3.73 | 86.3 | O=C(CO)N1CCCC(c2ccn[nH]2)C1CO[C@H]1CC[C@@H](c2c(F)ccc(F)c2F)CC1 (relative stereo) [Example 32, 1-(3-(1H-Pyrazol-5-yl)-2-((((CIS)-4-(2,3,6-trifluorophenyl)cyclohexyl)oxy)methyl)piperidin-1-yl)-2-hydroxyethan-1-one]
8.81 | 78.7 | COC(C)(C)C(=O)N1CCC[C@H](c2cc[nH]n2)[C@@H]1CO[C@H]1CC[C@@H](c2ccccc2)CC1 (relative stereo) [Example 87, 2-methoxy-2-methyl-1-((CIS)-2-((((CIS)-4-phenylcyclohexyl)oxy)methyl)-3-(1H-pyrazol-3-yl)piperidin-1-yl)propan-1-one]
5.31 | 83.2 | CC(C)[C@H]1CC[C@@H](OC[C@H]2[C@@H](c3cc[nH]n3)CCCN2C(=O)C2CCC2)CC1 (relative stereo) [Example 79, cyclobutyl((CIS)-2-((((CIS)-4-isopropylcyclohexyl)oxy)methyl)-3-(1H-pyrazol-3-yl)piperidin-1-yl)methanone]
3.06 | 68.1 | COC(=O)N1CCC[C@H](c2cccc(O)n2)[C@@H]1CO[C@H]1CC[C@@H](c2ccccc2)CC1 (relative stereo) [Example 64, Methyl (CIS)-3-(6-hydroxypyridin-2-yl)-2-((((CIS)-4-phenylcyclohexyl)oxy)methyl)piperidine-1-carboxylate]
4.43 | 92.6 | O=C(N1CCC[C@H](c2cc[nH]n2)[C@@H]1CO[C@H]1CC[C@@H](c2ccccc2)CC1)C1(O)CC1 (relative stereo) [Example 78, (1-hydroxycyclopropyl)((CIS)-2-((((CIS)-4-phenylcyclohexyl)oxy)methyl)-3-(1H-pyrazol-3-yl)piperidin-1-yl)methanone]
0.593 | 98.3 | CCNC(=O)N1CCCC(c2[nH]ncc2C)C1COC1CCC(C(C)C)CC1 (single isomer, unassigned) [Example 59, N-ethyl-2-(((4-isopropylcyclohexyl)oxy)methyl)-3-(4-methyl-1H-pyrazol-5-yl)piperidine-1-carboxamide]
1.54 | 96.1 | CC(C)NC(=O)N1CCC[C@H](c2cc[nH]n2)[C@@H]1CO[C@H]1CC[C@@H](C(C)C)CC1 (relative stereo) [Example 121, (CIS)-N-isopropyl-2-((((CIS)-4-isopropylcyclohexyl)oxy)methyl)-3-(1H-pyrazol-3-yl)piperidine-1-carboxamide]
8.96 | 47.9 | COCCCOC(=O)N1CCC[C@H](c2cc[nH]n2)[C@@H]1CO[C@H]1CC[C@@H](c2ccccc2)CC1 (relative stereo) [Example 118, 3-methoxypropyl (CIS)-2-((((CIS)-4-phenylcyclohexyl)oxy)methyl)-3-(1H-pyrazol-3-yl)piperidine-1-carboxylate]
0.0023 | 100.1 | CCNC(=O)N1CCC[C@H](c2n[nH]cc2C)[C@@H]1CO[C@H]1CC[C@@H](c2cccc(F)c2)CC1 (single isomer, unassigned) [Example 11]
0.334 | 100.2 | CCNC(=O)N1CCCC(c2nc[nH]n2)C1CO[C@H]1CC[C@@H](C(C)C)CC1 (single isomer, unassigned) [Example 63, N-ethyl-2-((((CIS)-4-isopropylcyclohexyl)oxy)methyl)-3-(1H-1,2,4-triazol-3-yl)piperidine-1-carboxamide]
7.58 | 87 | C#CCCC(=O)N1CCC[C@H](c2cc[nH]n2)[C@@H]1CO[C@H]1CC[C@@H](C(C)C)CC1 (relative stereo) [Example 85, 1-((CIS)-2-((((CIS)-4-isopropylcyclohexyl)oxy)methyl)-3-(1H-pyrazol-3-yl)piperidin-1-yl)pent-4-yn-1-one]
1.14 | 97.8 | C=CCNC(=O)N1CCC[C@H](c2cc[nH]n2)[C@@H]1CO[C@H]1CC[C@@H](C(C)C)CC1 (relative stereo) [Example 120, (CIS)-N-allyl-2-((((CIS)-4-isopropylcyclohexyl)oxy)methyl)-3-(1H-pyrazol-3-yl)piperidine-1-carboxamide]
7.76 | 56.1 | CC[C@H](C)OC(=O)N1CCC[C@H](c2cc[nH]n2)[C@@H]1CO[C@H]1CC[C@@H](c2ccccc2)CC1 [Example 116, (S)-sec-butyl (CIS)-2-((((CIS)-4-phenylcyclohexyl)oxy)methyl)-3-(1H-pyrazol-3-yl)piperidine-1-carboxylate]
3.85 | 65.1 | O=C(OCC1CCC1)N1CCC[C@H](c2cc[nH]n2)[C@@H]1CO[C@H]1CC[C@@H](c2ccccc2)CC1 (relative stereo) [Example 104, cyclobutylmethyl (CIS)-2-((((CIS)-4-phenylcyclohexyl)oxy)methyl)-3-(1H-pyrazol-3-yl)piperidine-1-carboxylate]
2.93 | 40.7 | O=C(OCC(F)(F)F)N1CCC[C@H](c2cc[nH]n2)[C@@H]1CO[C@H]1CC[C@@H](c2ccccc2)CC1 (relative stereo) [Example 102, 2,2,2-trifluoroethyl (CIS)-2-((((CIS)-4-phenylcyclohexyl)oxy)methyl)-3-(1H-pyrazol-3-yl)piperidine-1-carboxylate]
0.227 | 99.9 | COC(=O)N1CCCC(c2nc(O)sc2Cl)C1COC1CCC(c2ccccc2)CC1 (single isomer, unassigned) [Example 67, Methyl 3-(5-chloro-2-hydroxythiazol-4-yl)-2-(((4-phenylcyclohexyl)oxy)methyl)piperidine-1-carboxylate]
4.8 | 63.1 | CCNC(=O)N1CCC[C@@H](c2cc[nH]n2)[C@H]1CO[C@H]1CC[C@@H](c2ccccc2)CC1 [Example 19, (2S,3R)-N-ethyl-2-((((CIS)-4-phenylcyclohexyl)oxy)methyl)-3-(1H-pyrazol-3-yl)piperidine-1-carboxamide]
0.0048 | 100.8 | CCNC(=O)N1CCC[C@H](c2n[nH]cc2C)[C@@H]1CO[C@H]1CC[C@@H](c2cccc(F)c2)CC1 (racemic) [Example 10, (CIS)-N-ethyl-2-((((CIS)-4-(3-fluorophenyl)cyclohexyl)oxy)methyl)-3-(4-methyl-1H-pyrazol-3-yl)piperidine-1-carboxamide]
6.9 | 88.6 | O=C(C1CC1(F)F)N1CCC[C@H](c2cc[nH]n2)[C@@H]1CO[C@H]1CC[C@@H](c2ccccc2)CC1 (relative stereo) [Example 92, (2,2-difluorocyclopropyl)((CIS)-2-((((CIS)-4-phenylcyclohexyl)oxy)methyl)-3-(1H-pyrazol-3-yl)piperidin-1-yl)methanone]
3.94 | 64.9 | CC(C)COC(=O)N1CCC[C@H](c2cc[nH]n2)[C@@H]1CO[C@H]1CC[C@@H](c2ccccc2)CC1 (relative stereo) [Example 105, isobutyl (CIS)-2-((((CIS)-4-phenylcyclohexyl)oxy)methyl)-3-(1H-pyrazol-3-yl)piperidine-1-carboxylate]
